Literature values, collected in patent US7820851B2, “Isotopically labeled polyfluorinated compound useful as an imaging tracer” (PerkinElmer Health Sciences, Inc., priority 2006, dated 2010).
Like-named read-outs stand apart in the source and are kept apart here.

Experiments:
[1] = reported value; context: PFOA levels in American residents

O=C(O)C(F)(F)C(F)(F)C(F)(F)C(F)(F)C(F)(F)C(F)(F)C(F)(F)F [PFOA, Perfluorooctanoic acid]
elimination half-life [1]: 4 years | primary tissues of distribution of PFOA-derived carbon-14 (female rats): liver, plasma, and kidney | elimination of PFOA-derived radioactivity in the urine (female rats, carbon-14 labeled PFOA): rapidly | primary tissues of distribution of PFOA-derived carbon-14 (male rats): liver and plasma | administered carbon-14 eliminated in the urine (male rats, carbon-14 labeled PFOA, in the same period): 6%
